Test results taken from patent US10046050B2, “Targeting immunotherapy for amyloidosis” (UNIVERSITY OF TENNESSEE RESEARCH FOUNDATION, priority 2014, dated 2018).
Where two headings read alike, the source gives them in different places.

Tests used:
[1] = test system: mAb clones 4, 5, 12, and 13; assay: ELISA capture of negative control biotinylated peptides by plate-adsorbed mAb clones; type: binding, murine; details: 100 ng/well
Method: More particularly, 96-well ELISA microplates were coated overnight with the indicated mAbs (500 ng/well), the wells were blocked with PBS/BSA solution before addition of biotinylated p5+14 peptide (100 ng/well). Biotinylated peptides, p5R and p31G (aka p5G) were used as a negative control. Following a wash step, detection of captured peptide was achieved by addition of europium-conjugated streptavidin as described above.

[2] = target: T1, human transthyretin (TTR) amyloid-laden tissue (Homo sapiens, UniProt P02766); assay: Pre-targeting immunohistochemistry on ATTR-laden tissue sections; type: binding
T1 construct: from tissue
Method: The pre-targeting efficacy of peptide p5+14 in conjunction with mAb clones 4, 5, 12, or 13 was further evaluated using human ATTR-laden formalin-fixed paraffin embedded tissue sections. More particularly, six micrometer-thick sections, cut from formalin-fixed, paraffin embedded human transthyretin (TTR) amyloid-laden tissue, were subjected to antigen retrieval by incubation with CitraPlus (BioGenex, San Ramon, Calif.) for 30 min at 90° C. Peptide p5+14 was added to the tissue at ˜3 μg/mL (30× molar excess over mAb) and incubated overnight at 4° C. Unbound reagent was removed by washing in PBST for 30 min. Tissues (with or without p5+14) were immunostained with a 3 μg/mL solution of biotinylated anti-peptide mAb (clones 4, 5, 12, or 13). Slides were developed by addition of streptavidin-HRP (Vectastain Elite ABC kit, Vector Labs) followed by 3,3′-diaminobezidene (Vector Labs).
By way of positive control, a biotinylated-p5+14 peptide (without mAb) was used to directly stain TTR amyloid in this tissue (red arrows, below), as described above.
To confirm the presence and distribution of amyloid in the tissue a consecutive slide was stained with Congo red. Briefly, tissues were incubated in Congo red solution (0.8% w/v Congo red, 0.2% KOH w/v in 80% ethanol) for 1 h at RT. Sections were then washed in water and counterstained by suspending in Mayer's hematoxylin for 2 min. […]

[3] = test system: synthetic and naturally-occurring amyloid samples; assay: Pull down assay of ^125I-labeled peptides; type: binding
Method: To evaluate the binding of p66 and p5+14 to synthetic and naturally-occurring amyloid, peptides p66 or p5+14 were radiolabeled with iodine-125 (I-125, ^125I) using oxidation with chloramine T (1 mg/ml in water freshly made. Free 1-125 was removed from the reaction mixture by size exclusion chromatography using a Sephadex G-25 solid phase and a 0.1% (w/v) gelatin in PBS mobile phase. Fractions of ˜250 μl were collected and the radioactivity in each measured using a gamma counter (Packard Cobra II auto-gamma counter). Peptide fractions with peak radioactivity were pooled and used for the “pull-down” assays.
For the pull down assay, ^125I-labeled peptide binding to murine: (m) AA and wild type (WT) liver homogenates (25 μl); rVλ6Wil (AL), Aβ(1-40) and islet amyloid polypeptide (IAPP) synthetic fibrils (25 μg), and; transthyretin-associated (ATTR), ALκ4-Cab and ALλ1-Ship human amyloid extracts (50 μg). The ^125I-peptides were prepared in PBST (0.15 M NaCl) or PBST with 1 M NaCl. Ten μl (˜5 ng, ˜100,000 counts per min [cpm]) of the ^125I-peptide solution was added to each test sample in a 200 μl volume. The reaction mixtures were rotated for 1 h at RT, then centrifuged twice at 16,000×g for 10 min. After each step the supernatants were removed and collected in test tubes. The pellets, obtained following the second spin were resuspended in PBST. The radioactivity in both the supernatant and pellet samples were measured using a Packard Cobra II auto-gamma counter. The bound peptide, expressed as % total was calculated according to: Bound peptide (% total)=(Pellet cpm)/(Pellet cpm+Supernatant cpm)

[4] = target: T2, AA amyloid (Mus musculus, UniProt P05367); assay: In vivo pre-targeting of ^125I-11-1F4 to systemic AA amyloid; set-up: species or system mice; details: 24 h post injection of 11-1F4 mAb; peptide given 24 h before mAb
T2 construct: from tissue; host or cells: organs of living H2-L^d-huIL-6 Tg Balb/c mice after AEF injection
T2 sequence (P05367 20-94 limits assumed): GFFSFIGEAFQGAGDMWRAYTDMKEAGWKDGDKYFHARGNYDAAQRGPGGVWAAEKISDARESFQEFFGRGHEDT
Method: Systemic visceral AA amyloidosis was induced in H2-L^d-huIL-6 Tg Balb/c transgenic mice that constitutively express the human interleukin-6 transgene, by iv injection of 10 μg of purified, splenic AA amyloid (amyloid enhancing factor; AEF) in 100 μL of sterile phosphate-buffered saline (PBS). Peptide p66 pre-targeting of ^125I-11-1F4 was evaluated in mice at 3-4 wk post AEF injection when amyloid load was modest.
Three cohorts of 3 mice, each received ˜400 μg of unlabeled peptide p66, and a second group of 3 cohorts were given peptide p5+14 as a control. Twenty-four hours after the peptide injection all mice were administered ˜150 μCi (˜20 μg) of ^125I-11-1F4 IV in the lateral tail vein. One group of p66 mice (n=3) and one group of p5+14 control mice (n=3) were euthanized at 24, 48 and 72 h post injection of 11-1F4 mAb and the organs harvested at necropsy for fixation, followed by microautoradiographic and immunohistochemical analyses.
For autoradiography, 6-μm-thick sections were cut from formalin-fixed, paraffin-embedded blocks, containing tissues from mice that had received […]. The sections were placed on Plus microscope slides (Fisher Scientific), dipped in NTB-2 emulsion (Eastman Kodak), stored in the dark, and developed after a 4 day exposure. Each section was counterstained with hematoxylin and eosin.
Formalin-fixed paraffin embedded tissue sections, from mice treated with p66 peptope or peptide p5+14 were subjected to antigen retrieval using citrate buffer (pH 6; Dako) 30 min at 90° C. The tissue was then blocked with hydrogen peroxide, casein, and avidin and biotin, per manufacturer's instructions. The biotinylated peptide-reactive mAb (clone 12-3 [described above]) was then added (1.6 μg/mL in PBS) an the samples incubated for 2 h at RT, O/N at 4° C., followed by another 2 h period at RT. […]
The presence of macrophages was detected by staining with mAb Iba-1 (1:8000 diln) followed by addition of biotinylated rabbit anti-mouse secondary reagent (Vector Rabbit Elite kit). […]

[5] = test system: mAb 7D8; assay: Surface plasmon resonance of mAb 7D8 binding to amino-coupled peptopes; details: 7D8 2.7 nM; for Kd: read-out: KD
Method: Analyses were performed using a BIAcore X surface plasmon resonance instrument (GE Healthcare) and all reagents were obtained from GE Healthcare. For chip preparation, the peptides were attached to CM-5 chips using the amino-coupling method supplied with the instrument software. Briefly, chips were activated by injection (35 μL) of a mixture of ECD/NHS at a flow rate of 5 μL/min. Immediately thereafter, 35 μL of the test peptide (peptope p75, p76, p77, or p78), diluted to 1 μg/mL in NaOAc buffer, pH 5.5, was injected. After peptide coupling, the remaining active groups on the chip were blocked by injection of 35 μL of 1 M ethanolamine-HCl pH 8.5. Test peptides p75, p76, p77, or p78 were coupled to the Fc-1 channel and peptide p5, which served as a control, was coupled to the Fc-2 channel. A sensorgram was initiated on each chip in HBS-EP buffer at 10 μL per min. An initial regeneration step consisting of a 20 μL injection of pH 2.5 glycine buffer was performed and the baseline allowed to equilibrate. Antibody 7D8 was diluted to a stock of 10 μg/mL in HBS-EP buffer which was further diluted to a 0.4 μg/mL (˜2.7 nM) working dilution immediately before injection. The antibody was injected (50 μL) and the data collected for 200 seconds using a delayed wash cycle. The chip was subjected to a regeneration step before the next test injection. Binding data were extracted from the sensorgram, aligned, and analyzed using the BIAevaluation software by fitting to the following binding models (i) Langmuir, (ii) Langmuir with mass transfer, and (iii) Interaction of a bivalent analyte [A+B→AB; AB+B→AB2].

## GAQGAQAGQAGQAQGAQGAQAGQAGQ (GAQGAQAGQAGQAQGAQGAQAGQAGQ; Peptide p5G)
[1]
  capture of biotinylated peptide by adsorbed mAb clones: not captured

## KAQKAQAKQAKQAQKAQKAQAKQAKQAQKAQKAQAKQAKQ (KAQKAQAKQAKQAQKAQKAQAKQAKQAQKAQKAQAKQAKQ; Peptide p5+14)
[2]; compared with Congo red
  staining of ATTR amyloid by directly biotinylated peptide (no mAb): co-localizes with amyloid deposits
[2]; peptide ˜3 μg/mL, mAb clones 4, 5, 12, or 13 at 3 μg/mL
  staining of ATTR amyloid, non-biotinylated peptide pre-targeting then biotinylated anti-peptide mAb: the amyloid was readily visualized
[3]; 0.15 M NaCl
  binding of ^125I-peptide to amyloid samples: bound equally well
[3]; 1.0 M NaCl
  binding of ^125I-peptide to amyloid samples: bound equally well
[4]
  co-localization of ^125I-11-1F4 with AA amyloid after peptide pre-targeting: little evidence of ^125I-11-1F4 co-localized with the amyloid

## KAQKAQAKQAKQAQKAQKAQAKQAKQGGGHEDT [p76, KAQKAQAKQAKQAQKAQKAQAKQAKQGGGHEDT]
[5]; Bivalent Analyte
  Rmax (RU): 861 RU
  ka1: 609000 M⁻¹ s⁻¹
  ka2 (1/RUs): 2.38E−03 1/RUs
  kd1: 0.0736 s⁻¹
  kd2: 0.0774 s⁻¹
[5]; Langmuir with Mass Transfer
  KA: 6.33e+08 M⁻¹
  Req (RU): 191 RU
  Rmax (RU): 302 RU
  ka: 8.96e+06 M⁻¹ s⁻¹
  kd: 0.0137 s⁻¹
  kobs: 0.0372 s⁻¹
  kt (RU/(M*s)): 1.43E+09 RU/(M*s)
  Kd: 1.58 nM
[5]; Langmuir
  KA: 4.43e+08 M⁻¹
  Req (RU): 191 RU
  Rmax (RU): 351 RU
  ka: 2.95e+06 M⁻¹ s⁻¹
  kd: 0.00667 s⁻¹
  kobs: 0.0146 s⁻¹
  Kd: 2.26 nM

## KAQKAQAKQAKQAQKAQKAQAKQAKQGPGHEDT [p77, KAQKAQAKQAKQAQKAQKAQAKQAKQGPGHEDT]
[5]; Bivalent Analyte
  Rmax (RU): 5.43E+03 RU
  ka1: 44600 M⁻¹ s⁻¹
  ka2 (1/RUs): 3.76E−05 1/RUs
  kd1: 0.0295 s⁻¹
  kd2: 0.0224 s⁻¹
[5]; Langmuir with Mass Transfer
  KA: 3e+08 M⁻¹
  Req (RU): 192 RU
  Rmax (RU): 429 RU
  ka: 1.96e+08 M⁻¹ s⁻¹
  kd: 0.653 s⁻¹
  kobs: 1.18 s⁻¹
  kt (RU/(M*s)): 4.57E+08 RU/(M*s)
  Kd: 3.33 nM
[5]; Langmuir
  KA: 1.04e+07 M⁻¹
  Req (RU): 223 RU
  Rmax (RU): 8.16E+03 RU
  ka: 51900 M⁻¹ s⁻¹
  kd: 0.00498 s⁻¹
  kobs: 0.00512 s⁻¹
  Kd: 96 nM

## KAQKAQAKQAKQAQKAQKAQAKQAKQVTVHEDT [p78, KAQKAQAKQAKQAQKAQKAQAKQAKQVTVHEDT]
[5]; Bivalent Analyte
  Rmax (RU): 9.16E+03 RU
  ka1: 63700 M⁻¹ s⁻¹
  ka2 (1/RUs): 1.10E−07 1/RUs
  kd1: 0.00972 s⁻¹
  kd2: 2.63e-05 s⁻¹
[5]; Langmuir with Mass Transfer
  KA: 6.85e+08 M⁻¹
  Req (RU): 326 RU
  Rmax (RU): 502 RU
  ka: 1.29e+07 M⁻¹ s⁻¹
  kd: 0.0188 s⁻¹
  kobs: 0.0536 s⁻¹
  kt (RU/(M*s)): 1.65E+09 RU/(M*s)
  Kd: 1.46 nM
[5]; Langmuir
  KA: 4.05e+08 M⁻¹
  Req (RU): 331 RU
  Rmax (RU): 633 RU
  ka: 2.42e+06 M⁻¹ s⁻¹
  kd: 0.00598 s⁻¹
  kobs: 0.0125 s⁻¹
  Kd: 2.47 nM

## RAQRAQARQARQAQRAQRAQARQARQ (RAQRAQARQARQAQRAQRAQARQARQ; Peptide p5R)
[1]
  capture of biotinylated peptide by adsorbed mAb clones: not captured
